Assay results: the supplement of paper PMC11208160

Test: recombinant UMI read abundance after kanamycin selection (control-corrected) (log10(CPM+1)); higher = more efficient recombination; extreme values may be limits of the assay; sequences stand for … in AGTGCAGAGAAAATCGGCCAGTTTTCTCTGCCTGCAGTCCGCATGCCGTGGGACCCCTTGGGTTCTAACCTGTTGCCTAGATTTATGCAGCGGACTGCCTTTCTCCCAAAGTGATAAACCGG…AGGTTGGTTTCACT; site = the 11-nt donor
Procedure, shortened: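 Each donor and donor-binding-loop pair was tracked by a 12-nt UMI on a plasmid carrying a promoterless kanamycin gene. With a second plasmid supplying a fixed target and T7-inducible IS621 bridge recombinase, the pool was plated in Escherichia coli on IPTG (0.07 mM) plus kanamycin or unselected. Sequencing of recombinant UMIs across the donor–target junction gave counts expressed as log10(CPM+1) after replicate averaging and control-derived scaling.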
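Also: IS621 bridge recombinase in Escherichia coli cells against a fixed T5 target plasmid.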

Sequence	recombinant UMI read abundance (log10)
ATGTGGACATGGACCGGTTTTCCCGGTAATCCGTATTTGAC (site ATGTGGACTGT)	2.94
ATGTGGGCATGGACCGGTTTTCCCGGTAATCCGTATTTGGC (site ATGTAGGCTGC)	2.78
ATGTGGGCATGGACCGGTTTTCCCGGTAATCCGTATTTGGC (site ATGTCGGCTGC)	0
ATGTGGGCATGGACCGGTTTTCCCGGTAATCCGTATTTGGC (site ATGTGGGCTGC)	3.01
ATGTGGGCATGGACCGGTTTTCCCGGTAATCCGTATTTGGC (site ATGTTGGCTGC)	0.0921
ATGTGTGCATGGACCGGTTTTCCCGGTAATCCGTATTTGAC (site ATGTGTGCTGT)	2.78
ATGTTACCATGGACCGGTTTTCCCGGTAATCCGTATTTGGT (site ATGTTACCTAC)	0.0171
ATTACGGCATGGACCGGTTTTCCCGGTAATCCGTATTTGGA (site ATTACGGCTTC)	0.269
ATTACTTCATGGACCGGTTTTCCCGGTAATCCGTATTTGGG (site ATTACTTCTCC)	0.434
ATTAGAACATGGACCGGTTTTCCCGGTAATCCGTATTTGGC (site ATTAGAACTGC)	1.83
ATTAGAACATGGACCGGTTTTCCCGGTAATCCGTATTTGGC (site CTTAGAACTGC)	1.73
ATTAGAACATGGACCGGTTTTCCCGGTAATCCGTATTTGGC (site GTTAGAACTGC)	0
ATTAGAACATGGACCGGTTTTCCCGGTAATCCGTATTTGGC (site TTTAGAACTGC)	1.19
ATTAGTGCATGGACCGGTTTTCCCGGTAATCCGTATTTGGT (site AATAGTGCTAC)	0.125
ATTAGTGCATGGACCGGTTTTCCCGGTAATCCGTATTTGGT (site ACTAGTGCTAC)	0.675
ATTAGTGCATGGACCGGTTTTCCCGGTAATCCGTATTTGGT (site AGTAGTGCTAC)	0.243
ATTAGTGCATGGACCGGTTTTCCCGGTAATCCGTATTTGGT (site ATTAGTGCTAC)	1.05
ATTCCGGCATGGACCGGTTTTCCCGGTAATCCGTATTTGCT (site ATTCCGGCTAG)	0.0043
ATTCGAACATGGACCGGTTTTCCCGGTAATCCGTATTTGTT (site ATTCGAACTAA)	0.18
ATTCGTGCATGGACCGGTTTTCCCGGTAATCCGTATTTGAT (site ATTCGTGCTAT)	0.866
ATTCGTGCATGGACCGGTTTTCCCGGTAATCCGTATTTGTA (site ATTCGTGCTTA)	0.657
ATTCGTGCATGGACCGGTTTTCCCGGTAATCCGTATTTGTG (site ATTCGTGCTCA)	0.309
ATTCTTACATGGACCGGTTTTCCCGGTAATCCGTATTTGGT (site ATTCTTACTAC)	0.37
ATTGTATCATGGACCGGTTTTCCCGGTAATCCGTATTTGAG (site ATTGTATCTCT)	1.59
ATTTAAACATGGACCGGTTTTCCCGGTAATCCGTATTTGAC (site ATTTAAACTGT)	1.18

Sequence	recombinant UMI read abundance (log10)
ATTTAGACATGGACCGGTTTTCCCGGTAATCCGTATTTGGT (site ATTAAGACTAC)	0.513
ATTTAGACATGGACCGGTTTTCCCGGTAATCCGTATTTGGT (site ATTCAGACTAC)	0.475
ATTTAGACATGGACCGGTTTTCCCGGTAATCCGTATTTGGT (site ATTGAGACTAC)	0.0177
ATTTAGACATGGACCGGTTTTCCCGGTAATCCGTATTTGGT (site ATTTAGACTAC)	0.955
ATTTAGGCATGGACCGGTTTTCCCGGTAATCCGTATTTGGC (site ATATAGGCTGC)	1.64
ATTTAGGCATGGACCGGTTTTCCCGGTAATCCGTATTTGGC (site ATCTAGGCTGC)	0.928
ATTTAGGCATGGACCGGTTTTCCCGGTAATCCGTATTTGGC (site ATGTAGGCTGC)	0.42
ATTTAGGCATGGACCGGTTTTCCCGGTAATCCGTATTTGGC (site ATTTAGGCTGC)	1.93
ATTTATTCATGGACCGGTTTTCCCGGTAATCCGTATTTGAG (site ATTTATTCTCT)	1.61
ATTTCACCATGGACCGGTTTTCCCGGTAATCCGTATTTGGC (site ATTTCACCTGC)	0
ATTTCTACATGGACCGGTTTTCCCGGTAATCCGTATTTGTC (site ATTTCTACTGA)	0.00552
ATTTGAGCATGGACCGGTTTTCCCGGTAATCCGTATTTGCG (site ATTTGAGCTCG)	0.336
ATTTGTTCATGGACCGGTTTTCCCGGTAATCCGTATTTGGA (site ATTTGTTCTTC)	1.4
CAAAAGCCATGGACCGGTTTTCCCGGTAATCCGTATTTGTC (site CAAAAGCCTGA)	0
CAAAATACATGGACCGGTTTTCCCGGTAATCCGTATTTGGC (site CAAAATACTGC)	0
CAAACACCATGGACCGGTTTTCCCGGTAATCCGTATTTGAC (site CAAACACCTGT)	0.00914
CAAACGACATGGACCGGTTTTCCCGGTAATCCGTATTTGTT (site CAAACGACTAA)	1.41
CAAAGCTCATGGACCGGTTTTCCCGGTAATCCGTATTTGAA (site CAAAGCTCTTT)	3.18
CAAAGCTCATGGACCGGTTTTCCCGGTAATCCGTATTTGAA (site CAACGCTCTTT)	0.0122
CAAAGCTCATGGACCGGTTTTCCCGGTAATCCGTATTTGAA (site CAAGGCTCTTT)	0.579
CAAAGCTCATGGACCGGTTTTCCCGGTAATCCGTATTTGAA (site CAATGCTCTTT)	0.0194
CAAATACCATGGACCGGTTTTCCCGGTAATCCGTATTTGAC (site CAAATACCTGT)	0
CAAATCCCATGGACCGGTTTTCCCGGTAATCCGTATTTGGA (site CAAATCCCTTC)	0.334
CAAATCTCATGGACCGGTTTTCCCGGTAATCCGTATTTGCA (site CAAATCTCTTG)	1.85
CAACAACCATGGACCGGTTTTCCCGGTAATCCGTATTTGAA (site CAACAACCTTT)	0.102

Sequence	recombinant UMI read abundance (log10)
CAACACACATGGACCGGTTTTCCCGGTAATCCGTATTTGTG (site CAACACACTCA)	0.834
CAACGCTCATGGACCGGTTTTCCCGGTAATCCGTATTTGAA (site CAAAGCTCTTT)	0.00291
CAACGCTCATGGACCGGTTTTCCCGGTAATCCGTATTTGAA (site CAACGCTCTTT)	2.06
CAACGCTCATGGACCGGTTTTCCCGGTAATCCGTATTTGAA (site CAAGGCTCTTT)	0.00387
CAACGCTCATGGACCGGTTTTCCCGGTAATCCGTATTTGAA (site CAATGCTCTTT)	0.0343
CAACTCCCATGGACCGGTTTTCCCGGTAATCCGTATTTGCT (site CAAATCCCTAG)	0.818
CAACTCCCATGGACCGGTTTTCCCGGTAATCCGTATTTGCT (site CAACTCCCTAG)	1.86
CAACTCCCATGGACCGGTTTTCCCGGTAATCCGTATTTGCT (site CAAGTCCCTAG)	0.00625
CAACTCCCATGGACCGGTTTTCCCGGTAATCCGTATTTGCT (site CAATTCCCTAG)	0.765
CAACTTTCATGGACCGGTTTTCCCGGTAATCCGTATTTGGT (site CAACTTTCTAC)	0.82
CAAGATTCATGGACCGGTTTTCCCGGTAATCCGTATTTGTT (site AAAGATTCTAA)	0
CAAGATTCATGGACCGGTTTTCCCGGTAATCCGTATTTGTT (site CAAGATTCTAA)	3.22
CAAGATTCATGGACCGGTTTTCCCGGTAATCCGTATTTGTT (site GAAGATTCTAA)	0
CAAGATTCATGGACCGGTTTTCCCGGTAATCCGTATTTGTT (site TAAGATTCTAA)	0.464
CAAGCGCCATGGACCGGTTTTCCCGGTAATCCGTATTTGCG (site CAAGCGCCTCA)	0.0343
CAAGCGCCATGGACCGGTTTTCCCGGTAATCCGTATTTGCG (site CAAGCGCCTCC)	0.0171
CAAGCGCCATGGACCGGTTTTCCCGGTAATCCGTATTTGCG (site CAAGCGCCTCG)	2.05
CAAGCGCCATGGACCGGTTTTCCCGGTAATCCGTATTTGCG (site CAAGCGCCTCT)	0.00392
CAAGCGCCATGGACCGGTTTTCCCGGTAATCCGTATTTGTC (site CAAGCGCCTAA)	0.486
CAAGCGCCATGGACCGGTTTTCCCGGTAATCCGTATTTGTC (site CAAGCGCCTCA)	0.42
CAAGCGCCATGGACCGGTTTTCCCGGTAATCCGTATTTGTC (site CAAGCGCCTGA)	2.51
CAAGCGCCATGGACCGGTTTTCCCGGTAATCCGTATTTGTC (site CAAGCGCCTTA)	0.529
CAAGCGGCATGGACCGGTTTTCCCGGTAATCCGTATTTGTG (site CAAGCGACTCA)	1.37
CAAGCGGCATGGACCGGTTTTCCCGGTAATCCGTATTTGTG (site CAAGCGCCTCA)	0.00533
CAAGCGGCATGGACCGGTTTTCCCGGTAATCCGTATTTGTG (site CAAGCGGCTCA)	0.904
